According to ChEMBL document CHEMBL6182926, “Design, Synthesis, and Biological Activity Evaluation of Deuterated Diphenyl Azole Alcohol-Based CYP51 Inhibitors” (J Med Chem, 2025):
Converted amounts (≈) assume the structure as drawn. The source made the active and inactive calls. The rule behind the calls is not given here.

Columns and labels:
Candida albicans [1] = test: Antifungal activity against Candida albicans SC 5314 assessed as inhibition of visible growth; format: functional
Candida albicans [2] = test: Antifungal activity against Candida albicans CPCC 400616 assessed as inhibition of visible growth; format: functional
Candida tropicalis = test: Antifungal activity against Candida tropicalis CGMCC 2.3739 assessed as inhibition of visible growth; format: functional
Candida parapsilosis = test: Antifungal activity against Candida parapsilosis GIM 2.190 assessed as inhibition of visible growth; format: functional; settings: Lodderomyces parapsilosis
Nakaseomyces glabratus [3] = test: Antifungal activity against Clinical isolate Candida glabrata assessed as inhibition of visible growth; format: functional
Pichia kudriavzevii [4] = test: Antifungal activity against Candida krusei AS 2.1045 assessed as inhibition of visible growth; format: functional
Cryptococcus neoformans [5] = test: Antifungal activity against Cryptococcus neoformans CGMCC 2.3161 assessed as inhibition of visible growth; format: functional
Aspergillus fumigatus = test: Antifungal activity against Aspergillus fumigatus CGMCC 3.7795 assessed as inhibition of visible growth; format: functional
[6] = Cytotoxicity against human HUVEC cells measured after 72 hrs by MTT assay; format: toxicity, cell-based
[7] = Cytotoxicity against human SH-SY5Y cells measured after 72 hrs by MTT assay; format: toxicity, cell-based
Pichia kudriavzevii [8] = test: Fungicidal activity against Candida krusei AS 2.1045 assessed as concentration of colonies (< 5) measured after 48 hrs incubation; format: functional
Nakaseomyces glabratus [9] = test: Fungicidal activity against Clinical isolate Candida glabrata assessed as concentration of colonies (< 5) measured after 48 hrs incubation; format: functional
Cryptococcus neoformans [10] = test: Fungicidal activity against Cryptococcus neoformans CGMCC 2.3161 assessed as concentration of colonies (< 5) measured after 48 hrs incubation; format: functional
Nakaseomyces glabratus [11] = test: Inhibition of biofilm formation in clinical isolate Candida glabrata assessed as inhibition of metabolic activity of biofilm measured after 24 hrs by XTT assay; format: functional
Cryptococcus neoformans [12] = test: Inhibition of biofilm formation in Cryptococcus neoformans CGMCC 2.3161 assessed as inhibition of metabolic activity of biofilm measured after 24 hrs by XTT assay; format: functional
Cell membrane [13] = test: Induction of loss of cell membrane integrity in Candida albicans SC5314 assessed as irregular cell morphology at 16 microg/ml measured after 48 hrs incubation by transmission electron microscopy; format: subcellular; settings: dose 16.0 µg/ml
Candida albicans [14] = test: Antifungal activity against Candida albicans SC5314 assessed as reduction in ergosterol at 4 ug/ml measured after 18 hrs incubation by gas chromatography-mass spectrometry (GCMS) analysis (reference value: 96.72%); format: functional; parameters: scale not given: the % may be the effect or the level left; settings: dose 4 µg/ml
Candida albicans [15] = test: Antifungal activity against Candida albicans SC5314 assessed as reduction in 14alpha-methylsterols at 4 ug/ml measured after 18 hrs incubation by gas chromatography-mass spectrometry (GCMS) analysis (reference value: 0.69%); format: functional; parameters: scale not given: the % may be the effect or the level left; settings: dose 4 µg/ml
Candida albicans [16] = test: Antifungal activity against Candida albicans SC5314 assessed as reduction in Obtusifoliol at 4 ug/ml measured after 18 hrs incubation by gas chromatography-mass spectrometry (GCMS) analysis; format: functional; parameters: scale not given: the % may be the effect or the level left; settings: dose 4 µg/ml
Candida albicans [17] = test: Antifungal activity against Candida albicans SC5314 assessed as reduction in Lanosterol at 4 ug/ml measured after 18 hrs incubation by gas chromatography-mass spectrometry (GCMS) analysis; format: functional; parameters: scale not given: the % may be the effect or the level left; settings: dose 4 µg/ml
Cell membrane [18] = test: Antifungal activity against Candida albicans SC5314 assessed as reduction in Eburicol at 4 ug/ml measured after 18 hrs incubation by gas chromatography-mass spectrometry (GCMS) analysis; format: subcellular; parameters: scale not given: the % may be the effect or the level left; settings: dose 4.0 µg/ml
Candida albicans [19] = test: Antifungal activity against Candida albicans SC5314 assessed as reduction in other sterol at 4 ug/ml measured after 18 hrs incubation by gas chromatography-mass spectrometry (GCMS) analysis (reference value: 2.59%); format: functional; parameters: scale not given: the % may be the effect or the level left; settings: dose 4 µg/ml
Cryptococcus neoformans [20] = test: Antifungal activity against Cryptococcus neoformans CGMCC 2.3161 assessed as reduction in ergosterol at 8 ug/ml measured after 18 hrs incubation by gas chromatography-mass spectrometry (GCMS) analysis (reference value: 94.48%); format: functional; parameters: scale not given: the % may be the effect or the level left; settings: dose 8 µg/ml
Cryptococcus neoformans [21] = test: Antifungal activity against Cryptococcus neoformans CGMCC 2.3161 assessed as reduction in Obtusifoliol at 8 ug/ml measured after 18 hrs incubation by gas chromatography-mass spectrometry (GCMS) analysis; format: functional; parameters: scale not given: the % may be the effect or the level left; settings: dose 8 µg/ml
Cryptococcus neoformans [22] = test: Antifungal activity against Cryptococcus neoformans CGMCC 2.3161 assessed as reduction in Eburicol at 8 ug/ml measured after 18 hrs incubation by gas chromatography-mass spectrometry (GCMS) analysis; format: functional; parameters: scale not given: the % may be the effect or the level left; settings: dose 8 µg/ml
Cryptococcus neoformans [23] = test: Antifungal activity against Cryptococcus neoformans CGMCC 2.3161 assessed as reduction in other sterol at 8 ug/ml measured after 18 hrs incubation by gas chromatography-mass spectrometry (GCMS) analysis (reference value: 2.20%); format: functional; parameters: scale not given: the % may be the effect or the level left; settings: dose 8 µg/ml
Candida albicans [24] = test: In vivo anti-resistant activity against fluconazole-resistant Candida albicans strain 17# infected in cyclophosphamide-immunosuppressed ICR mouse model assessed as reduction in fungal burden in kidney at 1 to 5 mg/kg, oral gavage for 5 days post infection; format: functional, organism-based; settings: dose 1-5 mg/kg, time 5.0 day

Work on `OC(Cn1cncn1)(Cn1cncn1)c1ccc(F)cc1F` [FLUCONAZOLE] yielded an MIC80 (Candida albicans [1]) of 0.25 µg/mL (≈ 0.816 µM), an MIC80 (Candida albicans [2]) of 0.5 µg/mL (≈ 1.63 µM) and an MIC80 (Candida tropicalis) of 0.25 µg/mL (≈ 0.816 µM). For the same molecule, the MIC80 (Candida parapsilosis) was 1 µg/mL (≈ 3.27 µM), the MIC80 (Nakaseomyces glabratus [3]) was 32 µg/mL (≈ 104 µM) and the MIC80 (Pichia kudriavzevii [4]) was 8 µg/mL (≈ 26.1 µM). For the same molecule, the MIC80 (Cryptococcus neoformans [5]) was 16 µg/mL (≈ 52.2 µM), the MIC80 (Aspergillus fumigatus) was greater than 64 µg/mL and the IC50 at 72 h [6] was greater than 40 µM. For the same molecule, the IC50 at 72 h [7] was greater than 100 µM, the MFC (Pichia kudriavzevii [8]) was greater than 128 µg/mL and the MFC (Nakaseomyces glabratus [9]) was greater than 128 µg/mL. The MFC (Cryptococcus neoformans [10]) was greater than 128 µg/mL, the MIC50 (Nakaseomyces glabratus [11]) was 0.12 µg/mL (≈ 0.392 µM) and the MIC50 (Cryptococcus neoformans [12]) was 32 µg/mL (≈ 104 µM). For the same molecule, the Activity (Cell membrane [13]) was “Active”, the Activity (Candida albicans [14]) was 3.81% and the Activity (Candida albicans [15]) was 8.46%. It also gave an Activity (Candida albicans [16]) of 18.55%, an Activity (Candida albicans [17]) of 18.35% and an Activity (Cell membrane [18]) of 49.5%. For the same molecule, the Activity (Candida albicans [19]) was 13.1%, the Activity (Cryptococcus neoformans [20]) was 86.73% and the Activity (Cryptococcus neoformans [21]) was 3.85%. For the same molecule, the Activity (Cryptococcus neoformans [22]) was 5.92%, the Activity (Cryptococcus neoformans [23]) was 3.51% and the Activity (Candida albicans [24]) was “inactive”.
